Source: a melting point compilation (Tetko et al.; mined from patent text by program, amines drawn as free bases though some values may be those of a salt)

melting point [°C]	SMILES
168 to 172	C[C@]1(CN2CCCc3ccccc32)Cn2cc([N+](=O)[O-])nc2O1
148 to 151	CC(=O)CCn1nc(C)c(-c2ccc3c(c2)NC(=O)CO3)c1-c1ccc(F)cc1
127	COC(=O)c1ccc2cc(C=O)ccc2c1
281 to 283	O=C1CC(c2ccccc2OCc2ccccc2)=Nc2ccc(N3CCOCC3)cc21
59	Cc1ccc(NCCN(C)C)c([N+](=O)[O-])c1
80 to 82	Cc1oc(-c2ccc(F)cc2)cc1CO
191 to 193	CC(C(O)CCC(C)(C)C)C1CCC2C3CC=C4CC(O)CCC4(C)C3CCC12C (stereo not drawn)
110 to 111	c1ccc2c(c1)nc(-c1ccc3c(c1)OCO3)n2CCC1CCCCC1
244 to 246	CCC1CCn2c(nc(-c3ccncc3)cc2=O)N1 (stereo not drawn)
150 to 152	CCCOC(=O)C1=C(C)NC(C#N)=C(C(=O)OC)C1c1ccccc1C#N (stereo not drawn)
66 to 67	COc1ccc2sc(C(=O)OCc3ccccc3)c(OCc3ccccc3)c2c1
> 230	N#Cc1cccc2c1CCCC2=O
90	COc1ccc(CSC2=NC(c3cccc([N+](=O)[O-])c3)C(C(=O)O)=C(C)N2)cc1 (stereo not drawn)
142 to 143	Cc1oc(-c2cc3ccccc3s2)nc1COc1ccc(CCCn2ccnc2)cc1
174 to 175	CCN1c2ncc(CCc3ccccc3)cc2C(=O)Nc2c(C)ccnc21
140 to 141	O=C(NCCO)c1cccc(-c2ccc3c(c2)N(c2ccc(Cl)cc2Cl)CC3)c1
154 to 160	COc1ccc2c(c1)N(c1ccc(F)cc1)C(=O)C2(CCc1nnn[nH]1)NC(=O)c1cc2ccccc2cn1 (stereo not drawn)
144 to 145	COc1cc(C(=O)c2nccn2C)cc([N+](=O)[O-])c1OC
59 to 61	ONCc1coc(-c2ccccc2)n1
214 to 215	O=C1c2ccccc2C(=O)N1CC(=O)N1c2ccccc2N(Cc2ccccc2)C(=O)C2(Cc3ccccc3)CCCC12 (stereo not drawn)
58 to 59	Cc1cc(OCc2ccccc2)c(C)cc1CO
85 to 87	O=C(C=Cc1ccc2c(c1)OCO2)C1CC1
156 to 157	CC(C)(C)NCC(O)COc1ccc2oc(-c3ccc(OCc4ccccc4)c(OCc4ccccc4)c3)cc(=O)c2c1 (stereo not drawn)
251 to 253	Cc1cccc(NC(=O)CN2C(=O)C3(COc4cc5c(cc43)CCO5)c3ccccc32)c1C (stereo not drawn)
131 to 136	COC(=O)c1cc(C2CCCO2)c(C(F)(F)F)cc1N (stereo not drawn)
93 to 94	CCn1c(=O)n(CCCCC(C)(O)CC)c(=O)c2c1ncn2Cc1ccccc1 (stereo not drawn)
225 to 227	CC1(C)CCOc2c(C(O)C#Cc3ccc(C(=O)O)c(O)c3)cccc21 (stereo not drawn)

melting point [°C]	SMILES
68 to 69	COc1cccc2c(CC(=O)OCC(=O)CCc3ccccc3)coc12
169 to 170	COc1ccc2c(c1)C(=O)C(C)(C)C(=O)N2
110 to 113	O=[N+]([O-])c1cc(CO)ccc1Sc1nccnc1Cl
87 to 88	CCCc1c(OCCCSc2ccc(C(C)=O)c(OCCCC(=O)OCC)c2CCC)ccc(C(C)=O)c1O
257 to 259	CC1(C)OC(=O)Nc2ccc(-c3ccc(N)nc3)cc21
261 to 264	CC(C)(Cn1cnc2c(N)nc3ccccc3c21)OCCS(C)(=O)=O
92.7 to 93.7	CCN(CCCCC12CC3CC(CC(C3)C1)C2)C(=O)NCCCc1ccncc1
149 to 150	CC(=NOCCC(N)=O)c1ccc(Cl)cc1
> 260	CNc1ccc(-c2cnc3[nH]c(=O)n(CC4CCOCC4)c3n2)cn1
96 to 97	CCOC(=O)Oc1ccc(S(=O)(=O)N2c3cc(F)ccc3-n3cccc3C2CC)cc1 (stereo not drawn)
147 to 148	C#CCOc1noc2ccc(N3C(=O)C4=C(CCCC4)C3=O)cc12
212 to 213	CCCCNC(=O)Nc1c(N)cccc1C(=O)NCC1CCN(C(c2ccccc2)c2ccccc2)CC1
125	Cc1ccccc1N1CCN(CCCCCC(=O)O)CC1
152 to 154	CC(=O)O[C@@H]1[C@H](OC(C)=O)[C@@H](C)O[C@H]1n1c(Br)nc2c(Br)c(Cl)c(Cl)cc21
140 to 145	O=C(O)[C@H](CO)NC(=O)[C@@H]1CS[C@H](c2ccccc2O)N1C(=O)CCS
163 to 165	CCN1CCN(Cc2ccc(COc3cccc4c3CN(C3CCC(=O)NC3=O)C4=O)cc2)CC1=O (stereo not drawn)
176 to 179	COc1cc(Nc2c(C#N)cnc3c(/C=C/CCN4CCOCC4)cccc23)c(Cl)cc1Cl
192	CN1CCCCC1C(NC(=O)Nc1ccc2[nH]ncc2c1)c1cc(F)cc(Cl)c1 (stereo not drawn)
63 to 65	CCC1(C(=O)C=Cc2ccc(OC)c(OC)c2)CC1
192 to 194	CCCCc1cc2c(cc1/C=C/c1ccc(C(=O)O)cc1)C(C)(C)CCC2(C)C
64 to 65	COC(=O)C(=O)c1ccc(OCCCCSc2ccc3ccccc3c2)cc1
122 to 123	O=C1N(Cc2ccccn2)c2ccccc2C12COc1cc3c(cc12)OCCCO3 (stereo not drawn)
159 to 160	CCNC(=O)c1c(-c2ccccc2)cccc1[Si](C)(C)C
155 to 157	O=c1cc(CO)occ1OCCC12CC3CC(CC(C3)C1)C2
197 to 199	CCOC(=O)c1cccc(Nc2nccc(-c3cccnc3)n2)c1
227 to 228	CC1(C)CCC(C)(C)c2cc(C=C=Cc3ccc(C(=O)O)cc3)ccc21
185 to 187	O=C(c1ccco1)c1cnn2c(-c3ccccc3)ccnc12

Second part, the molecule before the results:

SMILES	melting point [°C]
COC(=O)c1ccc2c(c1)N(C(=O)c1ccc(-c3ccccc3C(F)(F)F)c(C)c1)Cc1cccn1C2	180 to 182
CCOC(=O)/C=C/c1cn(Cc2cc(OCc3ccccc3)cc(OCc3ccccc3)c2)cc1-c1ccccc1	98 to 99
C=CCC(CC1CC2CCN1CC2)(c1ccccc1)c1ccccc1 (stereo not drawn)	95.5 to 98
Oc1ccc(-c2nc(Br)c[nH]2)cc1	210 to 212
Cn1ncnc1COc1nn2c(-c3ccccc3)nnc2c(Cl)c1N1CCCC1	174 to 176
Clc1cc2nc3cc4ccccc4[nH]c-3c2cc1Br	> 246
CC(C)Oc1ccc(-n2c(C(=O)O)c(C(=O)O)c3cc(Oc4cccc(Cl)c4)ccc32)cc1	182 to 190
C=CCN1CCC(=O)N(c2c(C)cccc2C)C1=S	88 to 91
C[C@@H](Nc1c(Nc2ccc(C#N)c(Cl)c2)c(=O)c1=O)C(C)(C)C	> 300
FC(F)(F)c1ccc2nc(N3CCN(c4ncccc4C(F)(F)F)CC3)[nH]c2c1	221 to 224
Cc1nc2nc(SCc3ccccc3)nn2c(C)c1Cl	164 to 166
CCOC(=O)C=C(c1ccccc1)c1cc([N+](=O)[O-])ccc1NS(=O)(=O)c1ccc(OC)cc1	126 to 129
c1ccc2nc(N3CCNCC3)cnc2c1	74 to 76
Cc1[nH]c(Br)c(C)c1-c1ccnc(Nc2ccc(F)cc2)n1	181 to 183
Cc1c2c(c(C#N)c(=O)n1C)-c1ccccc1C2=O	271 to 274
Cc1cccc(C(C)C)c1NC(=O)Nc1c(-c2ccccc2F)c2cc(Cl)ccc2oc1=O	217 to 218
O=C1C=CC(O)(c2cc3ccccc3o2)c2ccccc21 (stereo not drawn)	105 to 107
CC1(C)CCC(C)(C)c2cc(-c3cc(-c4ccc(C(N)=O)cc4)ccc3-c3ccccc3)ccc21	220
Cc1nc(-n2ccc(NCc3ccccc3)cc2=O)sc1C(=O)NCc1ccccc1	253 to 255
O=C1CC(c2cccc(-n3ccnc3)c2)=Nc2cc(O)c(-c3ccc(F)cc3)cc2N1	250
CN1C[C@H](CN2CCN(C(c3ccccc3)c3ccccc3)CC2)C=C2c3cccc4[nH]c(Cl)c(c34)C[C@H]21	208
CCOP(=O)(OCC)OC(=Cc1nccn1C)c1ccccc1	111 to 114

SMILES	melting point [°C]
COc1cc2c(cc1OC)N(Cc1ccccc1)C(=O)CN=C2c1cccc(C(F)(F)F)c1	175 to 178
CC1(C)CCC(C)(C)c2cc(-c3cnn(-c4ccc(C(=O)O)cc4)c3)ccc21	229 to 232
CCCc1nc(NC)nc(N2CCOCC2)n1	131 to 133
Clc1cccc(Nc2nccc(-c3ccnc(Cl)c3)n2)c1	144 to 147
C=Cc1ccc(CSCCNC(=O)CCCC(=O)O)cc1	118 to 119
O=C(O)c1ccc(Cl)c2c1[nH]c1ccccc12	280
OC/C=C/c1ccc(C(F)(F)F)cc1	53 to 55
Nc1ccc(Oc2ccc(C(=O)O)c(O)c2)cc1	187 to 188
Nc1c(SC(F)(F)F)c(C=O)nn1-c1c(Cl)cc(C(F)(F)F)cc1Cl	140 to 143
Nc1nc(N)c2cc(S(=O)(=O)c3ccc4ccccc4c3)ccc2n1	300 to 302
CC(C)(C)c1cccc(S(=O)(=O)n2c(Cc3ccc(C4=NOC(=O)C4)cc3)cc3cc(C(F)(F)F)ccc32)c1	70
CC(O)(CCC#N)c1ccc(Oc2ccc(Cl)cc2)cc1 (stereo not drawn)	68 to 70
COc1ccc2c(C(=S)N(C)CC(N)=O)c(F)ccc2c1C(F)(F)F	222 to 224
Cc1ccc(S(=O)(=O)Nc2ccc(CCCC(=O)O)nc2)cc1	154 to 155
CC(=O)c1c(-c2ccncc2)[nH]c(-c2ccncc2)c1C	237 to 240
COC(=O)C(Cl)=Cc1cc(-n2ncc(C(F)(F)F)c(C)c2=O)c(F)cc1Cl	142 to 145
CC(=O)c1nn(-c2c(Cl)cc(C(F)(F)F)cc2Cl)cc1SC(F)(F)F	89 to 91
COC1(c2ccc(N(C)C)cc2)OC(=O)c2ccccc21 (stereo not drawn)	112 to 114
Cc1ccsc1C(Cc1cc(Br)ccc1N)N(C)C (stereo not drawn)	96 to 98
O=Cc1cc([N+](=O)[O-])c(Cl)cc1Cl	61 to 63
CCC(C)(Cc1c[nH]c2ccccc12)NC=O (stereo not drawn)	122 to 124
Cc1ccc(S(=O)(=O)N2N=C(c3ccccc3)CC3CC=CC32)cc1 (stereo not drawn)	163 to 165
